Data from patent publication US8809372B2, “Pyridine derivatives” (Endo Pharmaceuticals, Inc., priority 2011, dated 2014).

Tests used:
[1] = biological target: T1, human CYP17 in H295R adrenocortical carcinoma cells (Homo sapiens, UniProt P05093); assay: Cell-based human CYP17 inhibition assay, H295R cells; conditions: 16 hours, read-out: CYP17 (human H295R adrenal cells)
T1 construct: H295R Adrenocortical carcinoma cells [NCI-H295A, ATCC Number CRL-2128, American Type Culture Collection; host or cells: H295R adrenocortical carcinoma cells
T1 sequence (P05093 1-508): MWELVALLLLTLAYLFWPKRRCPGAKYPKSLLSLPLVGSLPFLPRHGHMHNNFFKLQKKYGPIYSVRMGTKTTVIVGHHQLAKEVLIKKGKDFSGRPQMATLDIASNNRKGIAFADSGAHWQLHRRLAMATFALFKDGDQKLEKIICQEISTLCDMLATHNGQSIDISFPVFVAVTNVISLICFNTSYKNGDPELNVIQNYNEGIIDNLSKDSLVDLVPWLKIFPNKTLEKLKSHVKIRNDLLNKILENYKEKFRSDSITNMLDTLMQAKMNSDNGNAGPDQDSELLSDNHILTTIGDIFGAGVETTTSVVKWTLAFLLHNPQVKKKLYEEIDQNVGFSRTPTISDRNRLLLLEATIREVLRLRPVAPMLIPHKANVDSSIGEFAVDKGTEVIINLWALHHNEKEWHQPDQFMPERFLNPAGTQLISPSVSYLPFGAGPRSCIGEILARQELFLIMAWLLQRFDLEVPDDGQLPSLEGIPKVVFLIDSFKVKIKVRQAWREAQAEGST
Procedure, shortened: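 H295R cells or LNCaP cells stably transfected with full-length human CYP17A1 (30,000/well) incubated 16 h at 37 °C with ³H-17α-hydroxypregnenolone and compound (top 10 μM, 3-fold dilutions, up to 10 concentrations). Medium chloroform-extracted and charcoal-treated; aqueous-phase radioactivity counted by scintillation.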

[2] = biological target: T2, rat CYP17 (rat testicular microsomes) (Rattus norvegicus, UniProt P11715); assay: CYP17 inhibition assay in rat testicular microsomes; format: biochemical
T2 construct: Rat testis tissue was collected and disrupted with 30 strokes of a glass homogenizer; from tissue; host or cells: rat testis (microsomes)
T2 sequence (P11715 1-507): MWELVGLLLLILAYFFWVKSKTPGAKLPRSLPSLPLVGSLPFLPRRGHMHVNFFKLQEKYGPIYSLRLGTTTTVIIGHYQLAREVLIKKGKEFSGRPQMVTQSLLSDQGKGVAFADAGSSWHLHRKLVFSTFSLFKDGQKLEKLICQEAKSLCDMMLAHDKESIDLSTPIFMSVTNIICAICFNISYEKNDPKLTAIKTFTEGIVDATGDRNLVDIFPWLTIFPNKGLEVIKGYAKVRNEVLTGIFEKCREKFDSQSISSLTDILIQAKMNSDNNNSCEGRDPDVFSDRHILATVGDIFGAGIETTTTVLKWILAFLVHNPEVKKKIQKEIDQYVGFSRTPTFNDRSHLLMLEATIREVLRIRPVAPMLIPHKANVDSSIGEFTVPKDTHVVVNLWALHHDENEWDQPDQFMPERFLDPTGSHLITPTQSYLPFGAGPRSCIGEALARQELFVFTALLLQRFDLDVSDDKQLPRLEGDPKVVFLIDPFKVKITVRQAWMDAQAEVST
Procedure, shortened: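 Rat testicular microsomes (150–160 μg) or yeast microsomes expressing human CYP17 (1.7 pmol) react with ³H-17α-hydroxypregnenolone (1 μCi/reaction) and 325 μM NADPH in potassium phosphate buffer, pH 7.4. Compound is pre-incubated with substrate for 15 min, then the reaction runs 60 min at 37 °C. After chloroform extraction and charcoal treatment, aqueous radioactivity is measured by scintillation counting.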

Compound: Cn1cc(-c2ccc(C(C)(O)c3ccncc3)s2)ccc1=O (single isomer, unassigned; (+)) [Example 16, (+)-5-(5-(1-hydroxy-1-(pyridin-4-yl)ethyl)thiophen-2-yl)-1-methylpyridin-2(1H)-one]
- IC50 [1]: 50 to 200 nM
- IC50 [2]: 50 to 200 nM

Compound: CC(C)CC(O)(c1ccncc1)c1cnc(-c2ccc(F)cc2)s1 (centres unmarked) [Example 47, 1-(2-(4-fluorophenyl)thiazol-5-yl)-3-methyl-1-(pyridin-4-yl)butan-1-ol]
- IC50 [1]: < 50 nM
- IC50 [2]: < 50 nM

Compound: CC(O)(c1ccncc1)c1nc(-c2ccc(F)cc2)ns1 (centres unmarked) [Example 52, 1-(3-(4-fluorophenyl)-1,2,4-thiadiazol-5-yl)-1-(pyridin-4-yl)ethanol]
- IC50 [1]: < 50 nM
- IC50 [2]: < 50 nM

Compound: CC(O)(c1ccncc1)c1cnc(-c2ccc(F)cc2F)s1 (centres unmarked) [Example 27, 1-[2-(2,4-Difluoro-phenyl)-thiazol-5-yl]-1-pyridin-4-yl-ethanol]
- IC50 [1]: < 50 nM
- IC50 [2]: < 50 nM
